Assay results from patent EP4260865B1, “COMPOSITION COMPRISING PLANT EXTRACTS FOR TREATING HYPERCHOLESTEROLEMIA” (Anvest Group S.r.l., priority 2022, dated 2023).

Tests used:
HMG CoA-reductase enzyme = target: T1, HMG CoA-reductase enzyme (Homo sapiens, UniProt P04035); assay: HMG-CoA reductase activity in treated human liver cells (HUCPI), NADPH oxidation; assay type: cell-based; conditions: administered once in the 24-hour period, Figure 4
T1 construct: First-line human liver cells (HUCPI) were cultured and treated with some compositions; endogenous in cells; host or cells: HUCPI first-line human liver cells
T1 sequence (P04035 1-888): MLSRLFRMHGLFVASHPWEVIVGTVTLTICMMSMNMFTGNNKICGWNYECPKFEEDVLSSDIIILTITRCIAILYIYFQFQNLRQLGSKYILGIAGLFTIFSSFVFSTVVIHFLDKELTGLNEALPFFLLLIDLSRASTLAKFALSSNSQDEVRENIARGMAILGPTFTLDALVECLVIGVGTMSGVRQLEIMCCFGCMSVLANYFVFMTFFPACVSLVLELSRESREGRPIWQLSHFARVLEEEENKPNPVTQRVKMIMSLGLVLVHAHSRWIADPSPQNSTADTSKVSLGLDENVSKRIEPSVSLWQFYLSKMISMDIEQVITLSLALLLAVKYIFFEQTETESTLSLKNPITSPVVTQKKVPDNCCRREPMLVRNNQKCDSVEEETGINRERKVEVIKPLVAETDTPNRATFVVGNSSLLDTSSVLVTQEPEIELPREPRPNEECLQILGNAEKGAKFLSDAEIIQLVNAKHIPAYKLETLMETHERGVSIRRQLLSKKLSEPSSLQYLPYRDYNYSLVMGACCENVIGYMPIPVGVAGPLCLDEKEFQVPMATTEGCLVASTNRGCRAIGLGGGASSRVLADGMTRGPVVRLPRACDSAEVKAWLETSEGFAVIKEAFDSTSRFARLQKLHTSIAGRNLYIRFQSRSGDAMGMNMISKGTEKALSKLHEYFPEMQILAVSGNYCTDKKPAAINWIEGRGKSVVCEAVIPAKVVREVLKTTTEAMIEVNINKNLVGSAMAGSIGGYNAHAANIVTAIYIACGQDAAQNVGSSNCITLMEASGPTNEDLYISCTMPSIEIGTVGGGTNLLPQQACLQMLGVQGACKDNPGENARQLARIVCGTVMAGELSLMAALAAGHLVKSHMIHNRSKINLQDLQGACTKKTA
Experimental: First-line human liver cells (HUCPI) were cultured and treated with some compositions, and with atorvastatin as a control, to evaluate the inhibition capacity of the HMG CoA-reductase enzyme. The enzymatic activity of HMG-CoA reductase was evaluated by measuring the dependent oxidation of NAPDH. For each sample, the measurements were carried out at least in triplicate, and the results were reported as the average of the single values.
The HUCPI cells were treated with the composition of Example 1 and with solutions of single extracts of Policosanols, and a mixture containing Policosanols, Oleuropein and Ipomea batata, in amounts equivalent to the ingredients of the composition of Example 1. After treatment, the cells were lysed and the catalytic fragment of the protein HMGR was cloned, overexpressed, and purified.

PCSK9 = PCSK9 inhibition in HepG2 liver cells (mRNA levels by qRT-PCR); assay type: cell-based, human; conditions: 40 µM berberine or 40 µM equivalent berberine, compared to the control
Experimental: Immortalized HepG2 human hepatocellular carcinoma cells were cultured and then treated with berberine extract, and the composition of Example 1. After treatment, the cells were lysed and the mRNA (messenger RNA) levels for PCSK9 expression were evaluated by qRT-PCR using human-specific PCR primers. For each sample, the measurements were carried out at least in triplicate and the results were reported as the average of the single values.
The efficacy of the invention composition was tested against HepG2 immortalized human hepatocarcinoma cells. […] The inhibition of the messenger RNA (mRNA) encoding the translation of the protein PCSK9 plays a key role in the mechanisms of action aimed at maximizing the hepatic reuptake of LDL cholesterol. […]
As it is possible to see in Figure 1, the mRNA levels related to PCSK9 expression of HepG2 cells are influenced by treatment with 40 µM of berberine, showing a reduction of about 25% after 6 hours and of 40% after 24 hours, compared to the control. […] In fact, a reduction of more than 40% was recorded after 6 hours from the treatment, while at 24 hours inhibition levels equal to about 60% were detected, due to a synergistic effect also of the other components present in the mixture, capable of influencing the PCSK9-LDLR metabolic pathway.

Structure (SMILES) | activity of HMRG (HMG CoA-reductase enzyme) | reduction of mRNA levels related to PCSK9 expression (PCSK9; after 6 hours) | reduction of mRNA levels related to PCSK9 expression (PCSK9; after 24 hours) [%]
CC(C)c1c(C(=O)Nc2ccccc2)c(-c2ccccc2)c(-c2ccc(F)cc2)n1CC[C@@H](O)C[C@@H](O)CC(=O)O [atorvastatin] | significantly reduced the activity of HMRG |  | 
COc1ccc2cc3[n+](cc2c1OC)CCc1cc2c(cc1-3)OCO2 [berberine] |  | about 25% | 40
